Data on 11 compounds can be found in ChEMBL document CHEMBL1201862, “PubChem BioAssay data set” (2004).

SMILES strings stand for the structures.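 Cells were grown in 96-well plates and exposed to each compound for 48 hours at five concentrations; endpoints were interpolated linearly between bracketing concentrations, or set to the highest concentration if not reached. GI50 = concentration required for 50% inhibition of growth.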 Activity calls are given as the source filed them. Rule as the data show it: active = GI50 up to about 1.1 µM and inactive = higher.

Test systems include M14; SK-MEL-2; HCT-116; ACHN; Hs-578T; MDA-MB-231; NCI-H23; IGROV-1; OVCAR-3; UACC-257; Malme-3M; SF-295; T47D; PC-3; LOX IMVI; NCI-H460; RPMI-8226; CCRF-CEM; NCI/ADR-RES; HCC 2998.
Holding throughout (test): NCI tumour cell line growth inhibition, 48 h

In the case of `Cc1nn(-c2ccccc2)c2c1C(c1ccc(Cl)cc1)NC(=S)N2` (centres undefined), the GI50 is 21.9 µM (inactive) in the assay with M14; 17.5 µM (inactive) in the assay with SK-MEL-2; 20 µM (inactive) with HCT-116; 20.7 µM (inactive) in the assay on ACHN; 29 µM (inactive) in the assay with Hs-578T; 16.5 µM (inactive) in the assay with MDA-MB-231. For the same compound, the GI50 in the assay on NCI-H23 was 18.9 µM (inactive); in the assay with IGROV-1 it was 12.6 µM (inactive); with OVCAR-3, 32.4 µM (inactive); with UACC-257, 36.6 µM (inactive); in the assay with Malme-3M, 28.2 µM (inactive); in the assay with SF-295, 24.5 µM (inactive). In addition, the GI50 in the assay with T47D was > 100 µM (inactive); with PC-3 it was 18.9 µM (inactive); with LOX IMVI, 16.3 µM (inactive); in the assay on NCI-H460, 23 µM (inactive); in the assay on RPMI-8226, 19.1 µM (inactive); with CCRF-CEM, 20.9 µM (inactive). Also, the GI50 in the assay with NCI/ADR-RES is 24.3 µM (inactive).
For `NC1(P(=O)(O)O)CCCCC1`, the GI50 with M14, in the assay on SK-MEL-2, with HCT-116, in the assay with ACHN, in the assay on Hs-578T and with MDA-MB-231 was > 100 µM (inactive) in each case. Moreover, the GI50 in the assay with NCI-H23, in the assay on IGROV-1, with OVCAR-3, in the assay on UACC-257, with Malme-3M and with SF-295 was > 100 µM (inactive) in each case. Besides, the GI50 in the assay on T47D, in the assay on PC-3, with LOX IMVI, in the assay with NCI-H460, in the assay on RPMI-8226 and in the assay with CCRF-CEM was > 100 µM (inactive) each time. The GI50 in the assay with NCI/ADR-RES was > 100 µM (inactive).
In the case of `Cc1ncc([N+](=O)[O-])n1CCNC(=O)CCCCn1ccnc1[N+](=O)[O-]`, the GI50 with M14, with SK-MEL-2, in the assay on HCT-116, in the assay with ACHN, with Hs-578T and in the assay with MDA-MB-231 was > 100 µM (inactive) in each case. The GI50 with HCC 2998, with NCI-H23, in the assay on IGROV-1, in the assay on OVCAR-3, with UACC-257 and with Malme-3M was > 100 µM (inactive) in each case. Moreover, the GI50 in the assay with SF-295, with T47D, with PC-3, in the assay on NCI-H460, in the assay on CCRF-CEM and in the assay on NCI/ADR-RES was > 100 µM (inactive) in each case.
Regarding `O=C(Cn1ccc(=O)[nH]c1=O)Nc1ccc(C(=O)O)c(O)c1`, the GI50 with M14, with SK-MEL-2, in the assay with HCT-116, in the assay with ACHN, in the assay on Hs-578T and in the assay on MDA-MB-231 was > 100 µM (inactive) in each case. The GI50 with NCI-H23 is > 100 µM (inactive); with IGROV-1, > 100 µM (inactive); with OVCAR-3 it was > 100 µM (inactive); in the assay on UACC-257 it was > 100 µM (inactive); in the assay with Malme-3M it was > 100 µM (inactive); in the assay with SF-295, 18.2 µM (inactive). Further, the GI50 in the assay with T47D, with PC-3, with LOX IMVI, with NCI-H460, in the assay with RPMI-8226 and in the assay on CCRF-CEM was > 100 µM (inactive) throughout. In the assay with NCI/ADR-RES, the GI50 is > 100 µM (inactive).
As for `COC(=O)c1cc2c3c(c(C(C)=O)c(OC)c2[nH]1)NCC3`, the GI50 in the assay with M14, in the assay with SK-MEL-2, with HCT-116, in the assay on ACHN, in the assay on Hs-578T and in the assay on MDA-MB-231 was > 50 µM (inactive) in each case. Further, the GI50 in the assay on NCI-H23, with IGROV-1, in the assay with OVCAR-3, in the assay with UACC-257, in the assay on Malme-3M and with SF-295 was > 50 µM (inactive) in each case. Further, the GI50 with T47D, in the assay on PC-3, in the assay with LOX IMVI, with NCI-H460, in the assay on RPMI-8226 and in the assay on CCRF-CEM was > 50 µM (inactive) throughout. In addition, the GI50 in the assay with NCI/ADR-RES was > 50 µM (inactive).
As for `Cc1cn(C2CC(O)C(COC(N)=O)O2)c(=O)[nH]c1=O` (centres undefined), the GI50 in the assay on M14, in the assay on SK-MEL-2, in the assay on HCT-116, with ACHN, in the assay on Hs-578T and in the assay on MDA-MB-231 was > 100 µM (inactive) in each case. For the same compound, the GI50 in the assay on NCI-H23, with IGROV-1, in the assay on OVCAR-3, in the assay with UACC-257, in the assay with Malme-3M and in the assay on SF-295 was > 100 µM (inactive) in each case. Moreover, the GI50 in the assay on T47D, with PC-3, with LOX IMVI, in the assay on NCI-H460, in the assay with RPMI-8226 and in the assay on CCRF-CEM was > 100 µM (inactive) throughout. Also, the GI50 in the assay on NCI/ADR-RES was > 100 µM (inactive).
`COc1c(C(C)(C)C)cc(CC2C(=O)C=CC2=O)cc1C(C)(C)C`: the GI50 was 17.9 µM (inactive) with M14; 19 µM (inactive) in the assay with SK-MEL-2; 3.13 µM (inactive) in the assay with HCT-116; 8.47 µM (inactive) in the assay with ACHN; 27 µM (inactive) in the assay on Hs-578T; 18.2 µM (inactive) in the assay on MDA-MB-231. In addition, the GI50 in the assay on NCI-H23 was 22.4 µM (inactive); in the assay with IGROV-1, 14.2 µM (inactive); in the assay on OVCAR-3, 13.9 µM (inactive); in the assay on UACC-257, 17.5 µM (inactive); in the assay with Malme-3M, 17.2 µM (inactive); in the assay on SF-295, 20.2 µM (inactive). In addition, the GI50 in the assay with T47D is 4.18 µM (inactive); in the assay on PC-3 it was 15.8 µM (inactive); in the assay with LOX IMVI, 11.1 µM (inactive); with NCI-H460 it was 20.2 µM (inactive); with RPMI-8226 it was 2.95 µM (inactive); in the assay on CCRF-CEM, 2.29 µM (inactive). Further, in the assay with NCI/ADR-RES, the GI50 is 32 µM (inactive).
Take `Cc1nn(-c2ccccc2)c2c1CC(=O)Nc1ccccc1-2`: the GI50 in the assay on M14 was 0.553 µM (active); in the assay with SK-MEL-2 it was 1.65 µM (inactive); in the assay on HCT-116, 0.409 µM (active); in the assay with ACHN, 1.05 µM (active); in the assay with Hs-578T it was 0.522 µM (active); in the assay with MDA-MB-231, 1.48 µM (inactive). For the same compound, the GI50 was 1.6 µM (inactive) in the assay on NCI-H23; 1.6 µM (inactive) in the assay on IGROV-1; 0.482 µM (active) in the assay with OVCAR-3; 0.555 µM (active) in the assay on UACC-257; 0.318 µM (active) in the assay on SF-295; > 10 µM (inactive) in the assay on T47D. Also, the GI50 in the assay on PC-3 was 0.679 µM (active); in the assay on LOX IMVI it was 0.507 µM (active); in the assay on NCI-H460, 0.521 µM (active); in the assay on RPMI-8226 it was 0.484 µM (active); with CCRF-CEM, 0.44 µM (active); in the assay with NCI/ADR-RES it was 0.413 µM (active).
On to `CC1(C)OC2COC(c3n[nH]c4c(=O)[nH]c(=O)[nH]c34)C2O1` (centres undefined), for which the GI50 with M14, in the assay on SK-MEL-2, in the assay with HCT-116, in the assay with ACHN, in the assay on Hs-578T and with MDA-MB-231 was > 100 µM (inactive) throughout. Besides, the GI50 with NCI-H23, in the assay on IGROV-1, with OVCAR-3, with UACC-257, in the assay with Malme-3M and in the assay on SF-295 was > 100 µM (inactive) each time. The GI50 in the assay with T47D, in the assay with PC-3, in the assay on LOX IMVI, in the assay on NCI-H460, in the assay with RPMI-8226 and with NCI/ADR-RES was > 100 µM (inactive) throughout.
In the case of `O=C(Nc1ccc2nc(O)n[n+]([O-])c2c1)C(F)(F)F`, the GI50 in the assay with M14, in the assay with SK-MEL-2, in the assay on HCT-116, in the assay with ACHN, with Hs-578T and in the assay on MDA-MB-231 was > 100 µM (inactive) throughout. Besides, the GI50 in the assay with NCI-H23, with IGROV-1, in the assay on OVCAR-3, in the assay on UACC-257, in the assay on SF-295 and in the assay with T47D was > 100 µM (inactive) each time. The GI50 with PC-3, in the assay on LOX IMVI, in the assay with NCI-H460, in the assay with RPMI-8226, in the assay with CCRF-CEM and in the assay on NCI/ADR-RES was > 100 µM (inactive) each time.
For `CSc1ncc2c(n1)-c1ccccc1OC2NC1CC1` (centres undefined), the GI50 with M14 was > 100 µM (inactive); in the assay with SK-MEL-2, > 100 µM (inactive); in the assay with HCT-116 it was 64.1 µM (inactive); with ACHN, 49.5 µM (inactive); in the assay on Hs-578T it was 38.1 µM (inactive); with MDA-MB-231 it was > 100 µM (inactive). The GI50 in the assay on NCI-H23 was 73.6 µM (inactive); with IGROV-1 it was 49 µM (inactive); with OVCAR-3, 57.5 µM (inactive); in the assay with UACC-257, > 100 µM (inactive); in the assay on SF-295, > 100 µM (inactive); in the assay with T47D, 28.6 µM (inactive). Besides, the GI50 was 50.7 µM (inactive) in the assay on PC-3; 92 µM (inactive) in the assay on LOX IMVI; 81.8 µM (inactive) in the assay on NCI-H460; 31.3 µM (inactive) in the assay with RPMI-8226; 31.4 µM (inactive) in the assay with CCRF-CEM; 48.1 µM (inactive) in the assay on NCI/ADR-RES.
